Source: patent US20260191766A1, “USE OF CONDITIONED MEDIUM DERIVED FROM CULTIVATION OF MESENCHYMAL STEM CELLS OF THE UMBILICAL CORD FOR INDUCING, STIMULATING AND PROMOTING HAIR GROWTH AND REGENERATION” (CELLRESEARCH CORPORATION PTE. LTD., priority 2022, published 2026)

Tests used:
[1] = test system: human follicle dermal papilla cells (HFDPC); test: growth promotion on cultured human follicle dermal papilla cells (WST-8); format: cell-based
Excerpt: Hair growth is controlled by a unique repetitive cycle comprised of anagen, catagen and telogen phases. Dermal papilla cells (DPCs), a group of specialized fibroblasts within the hair follicle bulb, have an essential function in the control of hair growth not only in the normal hair cycle but also in the pathogenesis of certain conditions, for example in androgenetic alopecia. Therefore, factors affecting the functions of DPCs in hair loss are of great importance from the therapeutic viewpoint. […] HFDPCs are either treated with different concentrations of Minodixil (0.0125-200 μg/mL; see Table 3, left column, serving as the reference) or conditioned medium of the invention at different dilutions (PC, dilution range from 10-1280 times; see third column of Table 3). The negative control (NC) refers to HFDPCs incubated with basal medium only. All data are shown as the mean±standard deviation (SD). For comparison of different treatments between 2 groups, the Student's t test was used. p<0.05 was considered significant, p<0.01 would normally be considered highly significant, and p<0.001 extremely significant. After calculation, p is 0.03.

[2] = test system: COVID-19-induced scalp alopecia (telogen effluvium); test: Example 8: case study, COVID-19-induced telogen effluvium; format: in vivo, human; conditions: same patient; minoxidil and LED light treatment (Hairmax)
Procedure: COVID-19-induced scalp Alopecia can induce telogen effluvium (TE) which refers to diffuse scalp alopecia. A patient with severe chronic TE with no spontaneous recovery after 6 months of hair loss and no response to conventional treatment of minoxidil and LED light treatment (Hairmax) was treated with a composition comprising conditioned medium derived from cultivation of mesenchymal stem cells of the umbilical cord (CALECIM® Advanced Hair System).
The scalp of the patient was progressively treated with rubbing with an alcohol swab, then 1 ml of a composition comprising conditioned medium derived from cultivation of mesenchymal stem cells of the umbilical cord was applied and massaged in till dry. The patient was advised to wait until evening to wash their hair. Five treatments of conditioned medium derived from cultivation of mesenchymal stem cells of the umbilical cord spaced a month apart were administered.

elastin mRNA in HDFs = conditions: 24 hours, 1 ng/ml; cited from earlier work

Row | Molecule | cell count of HFDPC (% of control) ([1]; Minoxidil 0.0125 ug/mL) | cell count of HFDPC (% of control) ([1]; Minoxidil 0.025 ug/mL) | cell count of HFDPC (% of control) ([1]; Minoxidil 0.05 ug/mL) | cell count of HFDPC (% of control) ([1]; Minoxidil 0.1 ug/mL) | cell count of HFDPC (% of control) ([1]; Minoxidil 0.2 ug/mL) | cell count of HFDPC (% of control) ([1]; Minoxidil 2 ug/mL) | cell count of HFDPC (% of control) ([1]; Minoxidil 20 ug/mL) | cell count of HFDPC (% of control) ([1]; Minoxidil 200 ug/mL) | more cells compared to negative control ([1]; diluted 320 times) | response to conventional treatment before the study treatment [2] | maximum increase of elastin mRNA steady-state levels (elastin mRNA in HDFs)
1 | Nc1cc(N2CCCCC2)nc(N)[n+]1[O-] [Minoxidil] | 94 ± 0.6 % of control | 92.2 ± 1.4 % of control | 120.8 ± 4.8 % of control | 120.8 ± 8.8 % of control | 123.2 ± 8.4 % of control | 124.5 ± 10.2 % of control | 98.5 ± 7.7 % of control | 43 ± 2.6 % of control | around 20% | no response | 
2 | TGF-β1: transforming growth factor, literature data |  |  |  |  |  |  |  |  |  |  | 30 fold
3 | TGF-β2: transforming growth factor, literature data (protein, UniProt P61812 303-414, looked up) Transforming growth factor …: ALDAAYCFRNVQDNCCLRPLYIDFKRDLGWKWIHEPKGYNANFCAGACPYLWSSDTQHSRVLSLYNTINPEASASPCCVSQDLEPLTILYYIGKTPKIEQLSNMIVKSCKCS |  |  |  |  |  |  |  |  |  |  | 30 fold
